According to BindingDB's records for doi:10.3109/10799899109064686 (Center For Bio-Pharmaceutical Sciences, 1991):

Legend:
Mu-type opioid receptor = Mu-type opioid receptor (Rattus norvegicus, UniProt P33535)
Adenosine receptor A2a = Adenosine receptor A2a (Rattus norvegicus, UniProt P30543)
[1] = biological target: 5-hydroxytryptamine receptor 2A (Rattus norvegicus, UniProt P14842)
[2] = biological target: Delta-type opioid receptor (Rattus norvegicus, UniProt P33533)
[3] = biological target: Kappa-type opioid receptor (Rattus norvegicus, UniProt P34975)
[4] = biological target: T1, 5-hydroxytryptamine receptor 1A (Rattus norvegicus, UniProt P19327)
T1 sequence (P19327 whole entry): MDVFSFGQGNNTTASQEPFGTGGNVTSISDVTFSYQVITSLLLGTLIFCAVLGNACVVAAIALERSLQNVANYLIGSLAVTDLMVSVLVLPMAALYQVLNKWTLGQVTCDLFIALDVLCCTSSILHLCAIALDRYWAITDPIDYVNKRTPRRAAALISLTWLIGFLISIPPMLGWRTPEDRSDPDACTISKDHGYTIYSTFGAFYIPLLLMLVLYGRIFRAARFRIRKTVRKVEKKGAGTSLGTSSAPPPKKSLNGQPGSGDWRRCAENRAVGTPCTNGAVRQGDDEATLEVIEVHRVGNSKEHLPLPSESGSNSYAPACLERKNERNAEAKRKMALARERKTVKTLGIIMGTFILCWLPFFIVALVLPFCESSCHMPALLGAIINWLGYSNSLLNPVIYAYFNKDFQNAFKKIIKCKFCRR

D(2) dopamine receptor = D(2) dopamine receptor (Rattus norvegicus, UniProt P61169)
[5] = biological target: Beta-1 adrenergic receptor (Rattus norvegicus, UniProt P18090)
[6] = biological target: 5-hydroxytryptamine receptor 1B (Rattus norvegicus, UniProt P28564)
[7] = biological target: Gamma-aminobutyric acid receptor subunit alpha-1 (Rattus norvegicus, UniProt P62813)
[8] = biological target: T2, 5-hydroxytryptamine receptor 2C (Sus scrofa, UniProt G7ZKZ7)
T2 sequence (G7ZKZ7 whole entry): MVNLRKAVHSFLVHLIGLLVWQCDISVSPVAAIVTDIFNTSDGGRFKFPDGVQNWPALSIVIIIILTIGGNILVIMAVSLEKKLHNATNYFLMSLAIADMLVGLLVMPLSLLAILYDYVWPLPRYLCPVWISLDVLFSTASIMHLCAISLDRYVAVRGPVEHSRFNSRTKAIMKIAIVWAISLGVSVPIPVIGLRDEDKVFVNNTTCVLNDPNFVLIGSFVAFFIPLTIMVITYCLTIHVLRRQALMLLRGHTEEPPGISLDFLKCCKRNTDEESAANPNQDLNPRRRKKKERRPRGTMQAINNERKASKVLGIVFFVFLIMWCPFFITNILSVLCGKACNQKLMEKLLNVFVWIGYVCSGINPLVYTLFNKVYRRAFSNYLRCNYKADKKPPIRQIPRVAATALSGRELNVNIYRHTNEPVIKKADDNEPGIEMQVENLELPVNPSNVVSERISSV

[9] = biological target: T3, Gastrin/cholecystokinin type B receptor (Rattus norvegicus, UniProt P30553)
T3 sequence (P30553 whole entry): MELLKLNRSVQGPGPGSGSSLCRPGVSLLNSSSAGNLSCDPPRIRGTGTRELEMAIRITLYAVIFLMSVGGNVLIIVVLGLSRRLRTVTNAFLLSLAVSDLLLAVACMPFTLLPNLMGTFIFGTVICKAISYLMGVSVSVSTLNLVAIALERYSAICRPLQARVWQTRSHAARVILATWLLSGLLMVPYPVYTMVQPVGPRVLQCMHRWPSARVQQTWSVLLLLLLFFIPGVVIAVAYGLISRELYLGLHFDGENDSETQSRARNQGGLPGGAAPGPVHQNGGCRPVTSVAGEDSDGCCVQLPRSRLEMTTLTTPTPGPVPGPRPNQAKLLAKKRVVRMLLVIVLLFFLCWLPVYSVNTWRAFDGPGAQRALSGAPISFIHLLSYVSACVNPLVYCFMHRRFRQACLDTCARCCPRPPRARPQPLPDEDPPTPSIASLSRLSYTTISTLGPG

D(1A) dopamine receptor = D(1A) dopamine receptor (Rattus norvegicus, UniProt P18901)
[10] = biological target: T4, Cysteinyl leukotriene receptor 1 (Cavia porcellus, UniProt Q2NNR5)
T4 sequence (Q2NNR5 whole entry): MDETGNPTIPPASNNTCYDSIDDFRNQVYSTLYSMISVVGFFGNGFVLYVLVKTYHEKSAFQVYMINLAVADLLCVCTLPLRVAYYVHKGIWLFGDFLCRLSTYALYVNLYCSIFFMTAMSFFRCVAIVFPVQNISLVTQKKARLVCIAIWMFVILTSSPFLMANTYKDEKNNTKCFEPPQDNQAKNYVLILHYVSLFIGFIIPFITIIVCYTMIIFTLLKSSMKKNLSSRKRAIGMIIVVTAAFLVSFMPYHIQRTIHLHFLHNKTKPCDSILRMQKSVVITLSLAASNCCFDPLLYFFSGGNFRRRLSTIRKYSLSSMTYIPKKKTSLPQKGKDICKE

Gamma-aminobutyric acid receptor subunit alpha-1, sequence (P62813 whole entry): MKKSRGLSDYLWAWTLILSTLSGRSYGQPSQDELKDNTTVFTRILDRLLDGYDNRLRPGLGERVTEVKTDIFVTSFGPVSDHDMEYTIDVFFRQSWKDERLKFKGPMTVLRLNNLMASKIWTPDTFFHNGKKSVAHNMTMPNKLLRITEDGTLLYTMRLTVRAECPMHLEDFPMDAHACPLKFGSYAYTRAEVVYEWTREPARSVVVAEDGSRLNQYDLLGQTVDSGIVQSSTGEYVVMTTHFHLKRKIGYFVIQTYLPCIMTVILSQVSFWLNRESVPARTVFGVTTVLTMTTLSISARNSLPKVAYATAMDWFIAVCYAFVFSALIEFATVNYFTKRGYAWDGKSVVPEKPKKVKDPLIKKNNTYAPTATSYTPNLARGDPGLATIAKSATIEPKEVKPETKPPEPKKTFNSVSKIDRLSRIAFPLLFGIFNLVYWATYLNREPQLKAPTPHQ
5-hydroxytryptamine receptor 2A, sequence (P14842 whole entry): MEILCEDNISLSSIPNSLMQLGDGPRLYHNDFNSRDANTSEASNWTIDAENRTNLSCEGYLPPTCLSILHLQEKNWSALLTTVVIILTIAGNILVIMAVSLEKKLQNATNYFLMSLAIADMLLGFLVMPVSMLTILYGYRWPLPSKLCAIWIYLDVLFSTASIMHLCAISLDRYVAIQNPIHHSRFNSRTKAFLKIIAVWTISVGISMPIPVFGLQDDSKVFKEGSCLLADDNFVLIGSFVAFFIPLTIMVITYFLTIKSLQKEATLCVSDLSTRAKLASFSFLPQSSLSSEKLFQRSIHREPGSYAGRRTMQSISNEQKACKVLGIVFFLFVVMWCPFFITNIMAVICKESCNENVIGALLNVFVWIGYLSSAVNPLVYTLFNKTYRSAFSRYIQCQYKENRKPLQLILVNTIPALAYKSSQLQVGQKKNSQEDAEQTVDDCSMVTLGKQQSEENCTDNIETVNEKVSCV
Delta-type opioid receptor, sequence (P33533 whole entry): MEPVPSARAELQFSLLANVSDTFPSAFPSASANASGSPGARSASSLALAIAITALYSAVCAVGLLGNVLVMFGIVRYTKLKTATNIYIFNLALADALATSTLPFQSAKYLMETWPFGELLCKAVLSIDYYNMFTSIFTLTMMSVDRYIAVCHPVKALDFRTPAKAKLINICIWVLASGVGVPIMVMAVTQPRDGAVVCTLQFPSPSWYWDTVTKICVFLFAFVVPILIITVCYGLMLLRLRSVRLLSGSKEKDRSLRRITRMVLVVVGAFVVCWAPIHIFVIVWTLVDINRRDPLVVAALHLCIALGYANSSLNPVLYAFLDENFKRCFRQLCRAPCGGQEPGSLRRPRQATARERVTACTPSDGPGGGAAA
Kappa-type opioid receptor, sequence (P34975 whole entry): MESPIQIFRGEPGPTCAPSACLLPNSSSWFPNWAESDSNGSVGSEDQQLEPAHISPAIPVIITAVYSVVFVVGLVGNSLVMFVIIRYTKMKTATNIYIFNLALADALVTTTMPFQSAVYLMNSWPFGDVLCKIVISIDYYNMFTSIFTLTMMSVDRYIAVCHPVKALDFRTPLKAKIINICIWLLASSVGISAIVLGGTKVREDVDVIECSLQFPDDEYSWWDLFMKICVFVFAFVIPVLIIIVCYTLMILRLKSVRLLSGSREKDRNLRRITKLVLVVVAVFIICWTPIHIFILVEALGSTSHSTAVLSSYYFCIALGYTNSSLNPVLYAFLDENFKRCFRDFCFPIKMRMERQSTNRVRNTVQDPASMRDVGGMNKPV
Beta-1 adrenergic receptor, sequence (P18090 whole entry): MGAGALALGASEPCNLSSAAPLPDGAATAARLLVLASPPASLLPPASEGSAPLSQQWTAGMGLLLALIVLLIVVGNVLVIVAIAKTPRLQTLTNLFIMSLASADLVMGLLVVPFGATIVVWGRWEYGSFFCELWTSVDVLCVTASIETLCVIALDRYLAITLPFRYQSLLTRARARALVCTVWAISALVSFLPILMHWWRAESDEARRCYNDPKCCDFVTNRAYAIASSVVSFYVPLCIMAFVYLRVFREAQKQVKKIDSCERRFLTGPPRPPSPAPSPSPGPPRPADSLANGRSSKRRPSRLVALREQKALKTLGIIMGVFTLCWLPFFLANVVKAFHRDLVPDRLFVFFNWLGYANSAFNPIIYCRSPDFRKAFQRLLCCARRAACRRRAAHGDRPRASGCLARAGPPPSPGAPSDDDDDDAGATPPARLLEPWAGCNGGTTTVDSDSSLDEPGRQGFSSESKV
D(1A) dopamine receptor, sequence (P18901 whole entry): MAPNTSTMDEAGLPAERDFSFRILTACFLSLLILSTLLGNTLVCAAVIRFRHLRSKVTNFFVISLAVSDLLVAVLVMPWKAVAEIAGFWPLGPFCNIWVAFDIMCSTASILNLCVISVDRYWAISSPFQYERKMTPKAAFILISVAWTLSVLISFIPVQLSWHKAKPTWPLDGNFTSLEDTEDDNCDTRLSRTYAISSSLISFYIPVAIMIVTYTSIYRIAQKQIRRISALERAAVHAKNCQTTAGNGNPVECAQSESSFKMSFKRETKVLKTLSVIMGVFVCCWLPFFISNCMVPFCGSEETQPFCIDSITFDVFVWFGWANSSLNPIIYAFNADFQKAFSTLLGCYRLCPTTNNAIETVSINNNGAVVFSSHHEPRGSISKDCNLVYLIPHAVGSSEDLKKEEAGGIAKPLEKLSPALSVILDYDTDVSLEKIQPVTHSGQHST
Adenosine receptor A2a, sequence (P30543 whole entry): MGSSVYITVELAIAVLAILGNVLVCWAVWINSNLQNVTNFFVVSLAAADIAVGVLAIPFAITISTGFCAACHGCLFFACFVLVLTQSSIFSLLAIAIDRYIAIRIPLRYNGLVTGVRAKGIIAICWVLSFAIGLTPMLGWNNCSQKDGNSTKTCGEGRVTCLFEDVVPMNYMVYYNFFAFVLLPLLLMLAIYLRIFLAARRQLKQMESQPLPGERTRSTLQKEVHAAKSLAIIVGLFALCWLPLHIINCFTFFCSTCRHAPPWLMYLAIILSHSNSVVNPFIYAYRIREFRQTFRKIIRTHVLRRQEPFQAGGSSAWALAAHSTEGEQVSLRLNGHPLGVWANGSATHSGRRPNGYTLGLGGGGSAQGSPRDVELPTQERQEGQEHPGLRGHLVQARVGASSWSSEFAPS
D(2) dopamine receptor, sequence (P61169 whole entry): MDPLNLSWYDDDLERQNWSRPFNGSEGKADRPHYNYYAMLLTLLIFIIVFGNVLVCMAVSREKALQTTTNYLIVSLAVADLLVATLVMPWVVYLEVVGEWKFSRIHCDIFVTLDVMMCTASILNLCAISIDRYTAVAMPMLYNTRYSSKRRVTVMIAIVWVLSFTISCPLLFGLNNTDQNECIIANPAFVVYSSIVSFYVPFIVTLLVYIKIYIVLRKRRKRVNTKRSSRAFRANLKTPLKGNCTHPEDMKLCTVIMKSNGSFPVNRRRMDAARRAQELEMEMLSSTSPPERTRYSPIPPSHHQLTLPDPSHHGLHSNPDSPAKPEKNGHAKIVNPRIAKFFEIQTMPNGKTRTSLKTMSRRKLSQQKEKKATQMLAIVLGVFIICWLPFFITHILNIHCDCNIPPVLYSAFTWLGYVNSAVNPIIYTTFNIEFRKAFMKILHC
Mu-type opioid receptor, sequence (P33535 whole entry): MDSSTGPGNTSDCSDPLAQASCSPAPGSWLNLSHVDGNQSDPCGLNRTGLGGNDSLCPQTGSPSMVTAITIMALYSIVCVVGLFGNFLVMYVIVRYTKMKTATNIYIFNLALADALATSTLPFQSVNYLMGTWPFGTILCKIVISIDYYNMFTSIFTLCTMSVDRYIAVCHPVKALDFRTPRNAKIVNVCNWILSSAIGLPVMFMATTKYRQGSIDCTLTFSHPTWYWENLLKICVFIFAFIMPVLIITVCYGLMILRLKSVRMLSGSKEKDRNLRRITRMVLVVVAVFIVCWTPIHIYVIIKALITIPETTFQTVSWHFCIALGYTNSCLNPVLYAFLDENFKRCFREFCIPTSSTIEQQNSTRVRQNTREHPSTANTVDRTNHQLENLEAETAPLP
5-hydroxytryptamine receptor 1B, sequence (P28564 whole entry): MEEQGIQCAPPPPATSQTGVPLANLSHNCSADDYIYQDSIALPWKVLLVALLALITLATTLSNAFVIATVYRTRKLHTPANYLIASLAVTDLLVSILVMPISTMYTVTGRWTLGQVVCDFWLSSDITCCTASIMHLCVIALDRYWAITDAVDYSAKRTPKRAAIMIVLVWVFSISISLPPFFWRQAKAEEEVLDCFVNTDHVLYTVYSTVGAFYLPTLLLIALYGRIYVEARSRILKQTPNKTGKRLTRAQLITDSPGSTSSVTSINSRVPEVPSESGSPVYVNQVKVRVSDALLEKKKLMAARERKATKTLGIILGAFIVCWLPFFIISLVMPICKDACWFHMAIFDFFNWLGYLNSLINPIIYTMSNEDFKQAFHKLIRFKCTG

## N=C(N)NC(=O)c1nc(Cl)c(N2CCCCCC2)nc1N
Mu-type opioid receptor
  Ki: 0.061 µM
Adenosine receptor A2a
  Ki: 4.6 µM
[1]
  Ki: 0.4 µM
[2]
  Ki: 1 µM
[3]
  Ki: 3.9 µM
[4]
  Ki: > 10 µM
D(2) dopamine receptor
  Ki: > 10 µM
[5]
  Ki: > 10 µM
[6]
  Ki: > 10 µM
[7]
  Ki: > 10 µM
[8]
  Ki: 6.7 µM
[9]
  Ki: > 10 µM
D(1A) dopamine receptor
  Ki: > 10 µM
[10]
  Ki: > 10 µM

## N=C(N)NC(=O)c1nc(Cl)c(N)nc1N [3,5-diamino-N-carbamimidoyl-6-chloropyrazine-2-carboxamide]
Mu-type opioid receptor
  Ki: > 10 µM
Adenosine receptor A2a
  Ki: 17 µM
[1]
  Ki: > 10 µM
[2]
  Ki: > 10 µM
[3]
  Ki: > 10 µM
[4]
  Ki: > 10 µM
D(2) dopamine receptor
  Ki: > 10 µM
[5]
  Ki: > 10 µM
[6]
  Ki: > 10 µM
[7]
  Ki: > 10 µM
[8]
  Ki: > 10 µM
[9]
  Ki: > 10 µM
D(1A) dopamine receptor
  Ki: > 10 µM
[10]
  Ki: > 10 µM

## NC(=NCc1ccccc1)NC(=O)c1nc(Cl)c(N)nc1N [NSC_108107]
Mu-type opioid receptor
  Ki: 1.1 µM
Adenosine receptor A2a
  Ki: 6.4 µM
[1]
  Ki: 1.4 µM
[2]
  Ki: > 10 µM
[3]
  Ki: > 10 µM
[4]
  Ki: 1.9 µM
D(2) dopamine receptor
  Ki: 7.6 µM
[5]
  Ki: > 10 µM
[6]
  Ki: > 10 µM
[7]
  Ki: > 10 µM
[8]
  Ki: > 10 µM
[9]
  Ki: > 10 µM
D(1A) dopamine receptor
  Ki: > 10 µM
[10]
  Ki: > 10 µM
